A short description of assay [1]: inhibitors of SNCA 5'UTR-driven translation, confirmation, luminescence, H4 neuroglioblastoma cells, dose confirmation (AID 2454).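 Note: H4 neuroglioblastoma cells carrying an alpha-synuclein 5'UTR luciferase reporter; potency for inhibition of the luciferase signal.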 In kind it is functional, cell-based.
Assay [2] is described as follows: cells. In kind it is functional, cell-based.
The subject of assay [3] is BJ. The assay is described as follows: cells. The assay is classed as functional, cell-based. To be noted: Homo sapiens.
The test system of assay [4] is BJ. The assay is described as follows: cytotoxicity toward BJ-TERT fibroblasts, dose response, cell-based, RAS-independent, luminescence (AID 1933). Conditions: Homo sapiens. In kind it is functional.
Assay [5] can be described thus: luciferase reporter signal reduction – luminescence, H4-C neuroglioblastoma cells, dose response (AID 2458).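 Note: H4 neuroglioblastoma cells stably carrying a luciferase reporter gene fusion.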 In kind it is functional, cell-based. A general note: A reporter such as luciferase makes a cellular process visible.
The nature of assay [6]: cytotoxicity toward DRD oncogenic fibroblasts, dose response, cell-based, non-viral oncogenic, luminescence (AID 1934). In kind it is functional. To be noted: Homo sapiens.
A short description of assay [7]: inhibitors of SNCA 5'UTR-driven reporter translation, confirmation, H4 neuroglioma cells, luminescence (AID 1988). The assay is classed as functional, cell-based.
In assay [8] the test system is BJ. The experiment in a line: cytotoxicity toward BJ-TERT-LT-ST fibroblasts, dose response, cell-based, RAS-independent, luminescence (AID 1935).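 Note: BJ fibroblasts immortalized with TERT plus LT and ST oncogenes.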 The assay is classed as functional. To be noted: Homo sapiens.
Assay [9] addresses Luciferin 4-monooxygenase (Photinus pyralis, UniProt P08659). The assay is described as follows: Counter Screen for Luciferase-based Assay Positives. [Related pubchem assays: 620, 618, 411 ]. A general note: A counterscreen serves to expose hits that act by an unwanted route or on another target.
For assay [10], the target named is T1, Oxysterols receptor LXR-beta (Homo sapiens, UniProt P55055).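 Note: Cell-based luminescence dose-response assay of agonist activity at LXR, run as a confirmatory counterscreen to a daf-12 agonist screen; HEK293 cells with Gal4-LXR fusion and GAL4-driven luciferase reporter; agonist potency from rising luciferase signal of a Gal4-LXR reporter.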
T1 sequence (P55055 whole entry): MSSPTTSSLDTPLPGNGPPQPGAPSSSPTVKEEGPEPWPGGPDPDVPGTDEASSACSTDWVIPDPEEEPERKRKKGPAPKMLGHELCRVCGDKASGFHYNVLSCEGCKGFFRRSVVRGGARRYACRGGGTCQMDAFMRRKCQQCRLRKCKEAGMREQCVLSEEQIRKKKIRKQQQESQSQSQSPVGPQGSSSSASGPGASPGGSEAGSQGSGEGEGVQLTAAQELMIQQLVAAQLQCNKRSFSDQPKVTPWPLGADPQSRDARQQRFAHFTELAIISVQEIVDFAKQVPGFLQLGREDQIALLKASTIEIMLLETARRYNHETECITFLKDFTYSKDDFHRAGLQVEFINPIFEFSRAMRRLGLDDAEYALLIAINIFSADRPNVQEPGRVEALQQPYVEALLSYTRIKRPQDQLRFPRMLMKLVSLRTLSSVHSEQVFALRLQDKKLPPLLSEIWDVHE
In kind it is functional, cell-based.

A short description of assay [11]: cells.
Assay [12] concerns HT-1080. The assay is described as follows: cytotoxicity in HT1080 fibrosarcoma cells, cell-based, fluorescence readout (AID 620). To be noted: Homo sapiens. In kind it is functional.
Assay [13] has as its target Procathepsin L (Homo sapiens, UniProt P07711).
The target in assay [14] is T2, Aspartyl aminopeptidase (Plasmodium falciparum 3D7, UniProt Q8I2J3).
T2 sequence (Q8I2J3 whole entry): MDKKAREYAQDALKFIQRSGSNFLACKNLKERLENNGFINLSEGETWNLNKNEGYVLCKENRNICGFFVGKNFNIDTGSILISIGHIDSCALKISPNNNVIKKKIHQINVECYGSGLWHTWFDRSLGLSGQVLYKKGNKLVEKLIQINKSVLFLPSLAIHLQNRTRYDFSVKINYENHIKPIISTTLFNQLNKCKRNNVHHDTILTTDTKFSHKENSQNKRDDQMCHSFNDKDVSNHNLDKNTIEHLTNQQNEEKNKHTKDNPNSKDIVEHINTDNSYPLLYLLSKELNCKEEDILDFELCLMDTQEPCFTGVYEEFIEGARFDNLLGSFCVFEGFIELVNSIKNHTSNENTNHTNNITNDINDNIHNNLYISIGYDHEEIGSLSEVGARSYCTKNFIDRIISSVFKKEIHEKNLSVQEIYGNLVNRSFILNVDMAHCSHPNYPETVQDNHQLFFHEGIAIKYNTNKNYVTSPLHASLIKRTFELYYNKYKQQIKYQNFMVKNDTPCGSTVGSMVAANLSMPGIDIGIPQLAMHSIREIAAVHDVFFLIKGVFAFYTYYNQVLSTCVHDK

Each structure is given as a SMILES string. Active and inactive are the calls of the source. Cut-off read from the data, not from the text of the source, for most assays here: actives have a measured EC50 and inactives only a lower limit.

The term EC50 denotes the midpoint of the concentration-response curve. For orientation: IC50 means the point on the concentration scale where inhibition reaches its midpoint.

Luciferin 4-monooxygenase, sequence (P08659 whole entry, the tested form may be a part): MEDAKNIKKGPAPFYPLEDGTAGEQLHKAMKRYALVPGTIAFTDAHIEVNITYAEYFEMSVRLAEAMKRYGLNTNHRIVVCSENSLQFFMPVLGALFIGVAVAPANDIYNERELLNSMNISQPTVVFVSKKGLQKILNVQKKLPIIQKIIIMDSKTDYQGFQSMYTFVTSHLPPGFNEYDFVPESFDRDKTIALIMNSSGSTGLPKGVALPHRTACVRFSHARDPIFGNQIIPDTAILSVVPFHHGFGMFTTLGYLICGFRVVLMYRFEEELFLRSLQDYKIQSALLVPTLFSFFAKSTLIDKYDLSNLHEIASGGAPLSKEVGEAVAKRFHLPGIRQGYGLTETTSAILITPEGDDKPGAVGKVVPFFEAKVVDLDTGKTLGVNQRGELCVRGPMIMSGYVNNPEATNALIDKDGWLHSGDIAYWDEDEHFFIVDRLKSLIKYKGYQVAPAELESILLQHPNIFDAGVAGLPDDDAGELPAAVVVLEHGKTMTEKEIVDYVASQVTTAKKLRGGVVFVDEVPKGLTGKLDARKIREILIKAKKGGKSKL
Procathepsin L, sequence (P07711 whole entry): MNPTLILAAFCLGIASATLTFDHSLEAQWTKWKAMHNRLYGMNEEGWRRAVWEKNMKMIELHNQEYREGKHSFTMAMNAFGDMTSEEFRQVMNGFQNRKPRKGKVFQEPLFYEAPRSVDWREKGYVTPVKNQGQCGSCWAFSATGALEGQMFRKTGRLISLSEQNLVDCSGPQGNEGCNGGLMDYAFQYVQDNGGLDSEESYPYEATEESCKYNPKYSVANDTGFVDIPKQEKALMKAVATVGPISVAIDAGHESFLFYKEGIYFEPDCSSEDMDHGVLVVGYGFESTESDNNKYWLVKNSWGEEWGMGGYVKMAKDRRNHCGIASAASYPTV

Consider `COC(=O)c1ccc(C)c(NS(=O)(=O)c2ccc(OC)cc2)c1`, for which the EC50 in assay [1] is 834 nM (active); in assay [2], 1020 nM (active); in assay [3], 1610 nM (active); in assay [4], 689 nM (inconclusive); in assay [5], > 12000 nM (not active); in assay [6], 682 nM (active). Moreover, the figures for the EC50 in [7] and in assay [8] were < 100 nM (active) and 353 nM (inconclusive), respectively.
`Cc1cc(C)c2c(N)c(C(=O)Nc3nccs3)sc2n1`: the concentration giving a half-maximal response (EC50) was > 100000 nM (not active) in [9], > 67500 nM (inactive) in [10], > 67500 nM (inactive) in assay [11] and > 50000 nM (not active) in assay [12].
Regarding `C=CCn1c(C)cc(C(=O)CSc2ccc(NC(C)=O)cc2)c1C`, the figures for the EC50 in assay [9] and in [12] were 770 nM (active) and > 50000 nM (not active), respectively.
As to `COc1cc([N+](=O)[O-])ccc1NC(=O)Nn1cnnc1`, the IC50 in assay [13] was > 59600 nM (not active); in assay [14] it was 353 nM (active).

Source of the values: ChEMBL document CHEMBL1201862, “PubChem BioAssay data set” (2004).
